Data as given in patent US20240206484A1, “METHOD OF DEVELOPMENT OF SELECTIVE PROBIOTIC GROWTH PROMOTORS AND SELECTIVE PATHOGEN GROWTH INHIBITORS FROM KIMCHI FERMENTATION” (Hannip Inc., priority 2022, published 2024).

Tests used:
[1] = test system: L. mesenteroides; assay: Impact of lactic acid on the effect of BKE-X1 or BKE-X2 on growth, colonies counted; assay type: cell-based, Leuconostoc mesenteroides; settings: lactic acid to reduce pH to 3 or less; 48 hours at 30° C.; vs control
Procedure: (§1) To MRS culture medium (1 mL) in a culture tube (15 mL), saline (9 mL), BKE-X1 or BKE-X2 (500 mg), and kimchi bacteria culture solution (select one of L. mesenteroides and L. plantarum) (0.5 mL) were added. The mixture was vortex stirred and cultured for 48 hours at 30° C. To MRS culture medium (1 mL) in another culture tube (15 mL), saline (9 mL), BKE-X1 or BKE-X2 (500 mg), kimchi bacteria culture solution (select one of L. mesenteroides and L. plantarum) (0.5 mL), and lactic acid (to reduce pH to 3 or less) were added. The mixture was vortex stirred and cultured for 48 hours at 30° C. To MRS culture medium (1 mL) in yet another culture tube (15 mL), saline (9 mL), kimchi bacteria culture solution (select one of L. mesenteroides and L. plantarum) (0.5 mL), and lactic acid (to reduce pH to 3 or less) were added. The mixture was vortex stirred and cultured for 48 hours at 30° C. As the control, to MRS culture medium (1 mL) in yet another culture tube (15 mL), saline (9 mL) and kimchi bacteria culture solution (select one of L. mesenteroides and L. plantarum) (0.5 mL) were added. The mixture was vortex stirred and cultured for 48 hours at 30° C. An aliquot (0.5 mL) was collected from each culture medium and serially diluted to 16,000× using saline solution. […] The colonies were counted and photographed, then compared side by side.

[2] = test system: L. plantarum; assay: as above; assay type: cell-based, Lactobacillus plantarum; settings: lactic acid to reduce pH to 3 or less; 48 hours at 30° C.; vs control
Procedure: as §1

CC(O)C(=O)O (centres unmarked) [lactic acid]
growth of L. mesenteroides, lactic acid alone [1]: negligibly inhibit | growth of L. plantarum, lactic acid alone [2]: negligibly promoting
